Experimental data: patent publication US8778882B2, “Agent for strengthening calcium containing tissue and use thereof” (Hayashibara Co., Ltd., priority 2002, dated 2014)

System: mouse pre-osteoblastic cell MC3T3-E1
Experiment: Alkaline phosphatase activity in mouse pre-osteoblastic cells
Format: cell-based
Procedure: To increase number of osteoblastic cells having calcium-deposition activity is important for increasing bone mass. […] The activity is at low level in pre-osteoblastic cells and at high level in osteoblastic cells differentiated form the pre-osteoblastic cells. […] Since final ethanol concentration in the medium is 0.2% (v/v), α-MEM medium containing 0.2% (v/v) ethanol was prepared as a negative control. The cells were inoculated for eight days as changing the medium therewith to fresh medium with or without each sample per three days. Alkaline phosphatase activity was measured using “Alkaline Phospha B-Test Wako” (commercialized by Wako Pure Chemical Industries, Osaka, Japan) according with Kajii et al (Archives of Oral Biology, Vol. 44, pp. 233-241, (1999)). Briefly, to the above described mouse pre-osteoblastic cells washed with 1 ml of 0.25 M sucrose solution three times after removing the medium were added 0.45 ml of 50 mM carbonate salt buffer (pH9.8) containing 1 mM magnesium chloride and 50 mM sucrose and 0.05 ml of 3.4 mM disodium p-nitrophenyl phosphate in due course. The mixture was incubated at 25° C. for five minutes and admixed with 1.5 ml of 0.6N sodium hydroxide as a reaction terminator. Absorbance 405 nm of p-nitrophenol generated by alkaline phosphatase in the resulting mixture was measured, and the obtained values were used as values as alkaline phosphatase activity. […] The experiment was performed by the method according to Experiment 1 except that culture day in the medium containing each sample was three, six or nine, and concentration of each sample was 5, 10 or 20 μM. […] As a negative control, mediums containing ethanol in the above concentration were prepared for calculating relative activity to the activity of each control.

## COc1ccc([C@@H]2CC(=O)c3c(O)cc(O)cc3O2)cc1O [Hesperetin]
MC3T3-E1, 5, 10 or 20 μM, day three, six or nine
  enhancement of alkaline phosphatase activity compared with ipriflavone (FIG. 1): equally enhances
Flavonoid comparison, method of Experiment 1, relative to 0.2% (v/v) ethanol negative control
  Relative Alkaline Phosphatase Activity (%): 116%
